Molecular target: T1, Jug r 3 (Juglans regia, UniProt C5H617)
T1 construct: mature protein, secreted from Pichia pastoris GS115 (pPICZalphaA), signal peptide removed; four extra N-terminal residues EAEF; monomer
T1 sequence (C5H617 27-119): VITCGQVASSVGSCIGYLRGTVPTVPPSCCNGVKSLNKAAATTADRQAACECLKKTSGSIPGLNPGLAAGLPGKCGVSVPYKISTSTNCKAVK
Experiment: ANS fluorescence displacement
Assay type: binding
Details: 10 uM protein, 10 uM ANS, protein:ligand 1:10 (100 uM ligand), overnight at 4 °C

Structure (SMILES): CCCCCCCC/C=C\CCCCCCCC(=O)O [OLE, oleate]
- % reduction of ANS fluorescence at protein:ligand 1:10: 31%

Source: publication PMC6376136, “Impact of lipid binding on the tertiary structure and allergenic potential of Jug r 3, the non-specific lipid transfer protein from walnut” (Scientific Reports, 2019)
